test system: T1, human PDE4; assay: IMAP FP in vitro enzymatic PDE4 inhibition assay; assay type: biochemical; details: PDE4 partially purified from human monocytic U-937 cells; 90 minutes at room temperature; fluorescence polarization
T1 construct: PDE4 is partially purified from undifferentiated human monocytic cells (U-937) according to Thorpy et al. 1992 (J. Pharmacol. Exp. Ther. 263: 1195)
Procedure: PDE4 specifically hydrolyzes cAMP and releases the product AMP. The potency of PDE inhibition by said agents is determined in an in vitro enzymatic assay. The assay is commercially available (IMAP™ FP assay Molecular Devices Corp.(MDS)) and is optimized for the use of human PDE4. Fluorescently labeled cAMP is hydrolyzed by PDE4 and in a second step, binding of labeled product to a large binding partner allowed product detection by fluorescence polarization (FP) measurements.
PDE4 is partially purified from undifferentiated human monocytic cells (U-937) according to Thorpy et al. 1992 (J. Pharmacol. Exp. Ther. 263: 1195). […] In addition, PDE4 preparations are validated by inhibition studies with PDE4-specific and unspecific PDE inhibitors.
Stock solutions of test compounds are made in DMSO and diluted in assay buffer (10 mM Tris-HCl, 10 mM MgCl2, 0.1% BSA 0.05% NaN3, pH 7.2) to the desired concentrations. The solutions used in the assay contained test compound in assay buffer with 2% DMSO.
10 μl of substrate (at a concentration recommended by the manufacturer) are mixed with 5 μl of appropriately diluted PDE and 5 μl of test compound solution. 5 μl of reaction buffer with 2% DMSO are used for control reactions. […] After incubation for 90 minutes at room temperature, 60 μl of binding reagent are added as specified by the manufacturer. Binding is allowed to proceed for 30 minutes and fluorescence polarization is measured. Dose dependence of PDE inhibition is measured by assaying dilution series of test compounds in duplicates. IC50 values are determined from the measured activities by curve fitting.

SMILES | IC50
CCC1OC(=O)C(C)C(OC2CC(C)(OC)C(O)C(C)O2)C(C)C(OC2OC(C)CC(N(C)C)C2O)C(C)(OC)CC(C)C(=O)C(C)C2C(SCCn3c(CCc4cccnc4)nc4c(N)ncnc43)C(=O)OC12C (stereo not drawn) [Example 1] | 13.4 µM
CC[C@H]1OC(=O)[C@H](C)[C@@H](O[C@H]2C[C@@](C)(OC)[C@@H](O)[C@H](C)O2)[C@H](C)[C@@H](O[C@@H]2O[C@H](C)C[C@H](N(C)C)[C@H]2O)[C@](C)(OC)C[C@@H](C)C(=O)[C@H](C)[C@H]2[C@H](SCCn3c(Nc4cccnc4)nc4c(N)ncnc43)C(=O)O[C@@]21C [Example 2] | 3.9 µM
CC[C@H]1OC(=O)[C@H](C)[C@@H](O[C@H]2C[C@@](C)(OC)[C@@H](O)[C@H](C)O2)[C@H](C)[C@@H](O[C@@H]2O[C@H](C)C[C@H](N(C)C)[C@H]2O)[C@](C)(OC)C[C@@H](C)C(=O)[C@H](C)[C@H]2[C@H](SCCN(C(=O)c3ccncc3)c3ccc(OC)c(OC4CCCC4)c3)C(=O)O[C@@]21C [Example 3] | 3.4 µM
CC[C@H]1OC(=O)[C@H](C)[C@@H](O[C@H]2C[C@@](C)(OC)[C@@H](O)[C@H](C)O2)[C@H](C)[C@@H](O[C@@H]2O[C@H](C)C[C@H](N(C)C)[C@H]2O)[C@](C)(OC)C[C@@H](C)C(=O)[C@H](C)[C@H]2[C@H](SCCN(Cc3ccncc3)c3ccc(OC)c(OC4CCCC4)c3)C(=O)O[C@@]21C [Example 4] | 0.28 µM
CC[C@H]1OC(=O)[C@H](C)[C@@H](O[C@H]2C[C@@](C)(OC)[C@@H](O)[C@H](C)O2)[C@H](C)[C@@H](O[C@@H]2O[C@H](C)C[C@H](N(C)C)[C@H]2O)[C@](C)(OC)C[C@@H](C)C(=O)[C@H](C)[C@H]2[C@H](SCCN(Cc3cccnc3)c3ccc(OC)c(OC4CCCC4)c3)C(=O)O[C@@]21C [Example 5] | 0.85 µM
CC[C@H]1OC(=O)[C@H](C)[C@@H](O[C@H]2C[C@@](C)(OC)[C@@H](O)[C@H](C)O2)[C@H](C)[C@@H](O[C@@H]2O[C@H](C)C[C@H](N(C)C)[C@H]2O)[C@](C)(OC)C[C@@H](C)C(=O)[C@H](C)[C@H]2[C@H](SCCNc3c(C(=O)Nc4c(Cl)cncc4Cl)cnc4c3cnn4CC)C(=O)O[C@@]21C [Example 6] | 0.37 µM
CC[C@H]1OC(=O)[C@H](C)[C@@H](O[C@H]2C[C@@](C)(OC)[C@@H](O)[C@H](C)O2)[C@H](C)[C@@H](O[C@@H]2O[C@H](C)C[C@H](N(C)C)[C@H]2O)[C@](C)(OC)C[C@@H](C)C(=O)[C@H](C)[C@H]2[C@H](SCCCc3c(C(=O)Nc4ccncc4)ccc(OC)c3OC)C(=O)O[C@@]21C [Example 7] | 7.6 µM
CC[C@H]1OC(=O)[C@H](C)[C@@H](O[C@H]2C[C@@](C)(OC)[C@@H](O)[C@H](C)O2)[C@H](C)[C@@H](O[C@@H]2O[C@H](C)C[C@H](N(C)C)[C@H]2O)[C@](C)(OC)C[C@@H](C)C(=O)[C@H](C)[C@H]2[C@H](SCCCn3cnc4c(N)ncc(C(=O)Nc5ccncc5)c43)C(=O)O[C@@]21C [Example 8] | 4.7 µM
CC[C@H]1OC(=O)[C@H](C)[C@@H](O[C@H]2C[C@@](C)(OC)[C@@H](O)[C@H](C)O2)[C@H](C)[C@@H](O[C@@H]2O[C@H](C)C[C@H](N(C)C)[C@H]2O)[C@](C)(OC)C[C@@H](C)C(=O)[C@H](C)[C@H]2[C@H](SCCCn3cnc4c(N)ncc(C(=O)NCC(=O)OC)c43)C(=O)O[C@@]21C [Example 9] | 24.2 µM
CC[C@H]1OC(=O)[C@H](C)[C@@H](O[C@H]2C[C@@](C)(OC)[C@@H](O)[C@H](C)O2)[C@H](C)[C@@H](O[C@@H]2O[C@H](C)C[C@H](N(C)C)[C@H]2O)[C@](C)(OC)C[C@@H](C)C(=O)[C@H](C)[C@H]2[C@H](SCCn3cnc4c(N)ncc(C(=O)Nc5ccncc5)c43)C(=O)O[C@@]21C [Example 10] | 1 µM
CC[C@H]1OC(=O)[C@H](C)[C@@H](O[C@H]2C[C@@](C)(OC)[C@@H](O)[C@H](C)O2)[C@H](C)[C@@H](O[C@@H]2O[C@H](C)C[C@H](N(C)C)[C@H]2O)[C@](C)(OC)C[C@@H](C)C(=O)[C@H](C)[C@H]2[C@H](SCCn3cnc4c(N)ncc(C(=O)Nc5c(Cl)cncc5Cl)c43)C(=O)O[C@@]21C [Example 11] | 0.008 µM
CC[C@H]1OC(=O)[C@H](C)[C@@H](O[C@H]2C[C@@](C)(OC)[C@@H](O)[C@H](C)O2)[C@H](C)[C@@H](O[C@@H]2O[C@H](C)C[C@H](N(C)C)[C@H]2O)[C@](C)(OC)C[C@@H](C)C(=O)[C@H](C)[C@H]2[C@H](SCCn3cnc4c(N)nc(NCc5cccnc5)nc43)C(=O)O[C@@]21C [Example 12] | 3.8 µM
CC[C@H]1OC(=O)[C@H](C)[C@@H](O[C@H]2C[C@@](C)(OC)[C@@H](O)[C@H](C)O2)[C@H](C)[C@@H](O[C@@H]2O[C@H](C)C[C@H](N(C)C)[C@H]2O)[C@](C)(OC)C[C@@H](C)C(=O)[C@H](C)[C@H]2[C@H](SCCn3cnc4c(N)nc(NCc5ccncc5)nc43)C(=O)O[C@@]21C [Example 13] | 2.6 µM
CC[C@H]1OC(=O)[C@H](C)[C@@H](O)[C@H](C)[C@@H](O[C@@H]2O[C@H](C)C[C@H](N(C)C)[C@H]2O)[C@](C)(OC)C[C@@H](C)C(=O)[C@H](C)[C@H]2[C@H](SCCn3cnc4c(N)ncc(C(=O)Nc5c(Cl)cncc5Cl)c43)C(=O)O[C@@]21C [Example 14] | 0.0049 µM
CC[C@H]1OC(=O)[C@H](C)C(=O)[C@H](C)[C@@H](O[C@@H]2O[C@H](C)C[C@H](N(C)C)[C@H]2O)[C@](C)(OC)C[C@@H](C)C(=O)[C@H](C)[C@H]2[C@H](SCCN(Cc3c(Cl)cncc3Cl)c3ccc(OC)c(OC4CCCC4)c3)C(=O)O[C@@]21C [Example 15] | 0.48 µM
CC[C@H]1OC(=O)[C@H](C)[C@@H](O)[C@H](C)[C@@H](O[C@@H]2O[C@H](C)C[C@H](N(C)C)[C@H]2O)[C@](C)(OC)C[C@@H](C)C(=O)[C@H](C)[C@H]2[C@H](SCCNc3c(C(=O)Nc4c(Cl)cncc4Cl)cnc4c3cnn4CC)C(=O)O[C@@]21C [Example 16] | 0.11 µM
CSCCn1cnc2c(N)ncc(C(=O)Nc3c(Cl)cncc3Cl)c21 [reference compound] | 3.6 µM

same assay, conditions: up to a concentration of 50 μM in the assay used in the examples

SMILES | PDE4-inhibiting activity
CC[C@H]1OC(=O)[C@H](C)[C@@H](O[C@H]2C[C@@](C)(OC)[C@@H](O)[C@H](C)O2)[C@H](C)[C@@H](O[C@@H]2O[C@H](C)C[C@H](N(C)C)[C@H]2O)[C@](C)(OC)C[C@@H](C)C(=O)[C@H](C)[C@H]2[C@H](SC)C(=O)O[C@@]21C [reference compound] | does not show any PDE4-inhibiting activity

Reference: patent publication US8445451B2, “Macrolides and uses of macrolides” (Basilea Pharmaceutica AG, priority 2008, dated 2013)
